How the values were obtained:
[1] = system: Human granulosa cells; test: Estrone production by cultured human granulosa cells with androstenedione as substrate (ELISA/RIA); type: cell-based; conditions: 3 μM androstenedione
Procedure: (§1) Human granulosa cells were obtained during in vitro fertilization over the course of 18 months and were pooled from several patients at a time to ensure adequate cell number for the experiments. The diagnoses included male factor, tubal factor and uterine factor infertility, endometriosis and anovulation. […] La Jolla, Calif.). Estrone and estradiol concentrations in the tissue culture medium were measured using enzyme-linked immuno-sorbent assay (ELISA) (Alpco Diagnostics, Salem, N.H.) or radioimmunoassay (RIA) (Diagnostic Systems Laboratories, Webster, Tex.). […] The statistical interactions between the sets of data obtained with or without rosiglitazone or pioglitazone and with or without aromatase inhibitor I were examined. Pairwise Bonferroni-adjusted contrasts were used to determine statistical significance. […] Adjustments were made for initial inhibition of estradiol or estrone production induced by rosiglitazone or pioglitazone in the absence of insulin, with or without aromatase inhibitor I.

[2] = system: Human granulosa cells; test: Estradiol production by cultured human granulosa cells with testosterone as substrate (ELISA/RIA); type: cell-based; conditions: 3 μM testosterone; for reduction of the inhibitory effect on insulin-induced estradiol production: in the presence of aromatase inhibitor I and insulin, FIG. 2A vs FIG. 2C
Procedure: as §1

[3] = system: aromatase mRNA; test: RT-PCR analysis of aromatase mRNA expression in granulosa cells; type: cell-based, human; conditions: androstenedione or testosterone as substrate
[4] = system: aromatase enzyme (protein) expression; test: Aromatase enzyme expression by immunoprecipitation and immunoblotting in granulosa cells; type: cell-based, human; conditions: androstenedione or testosterone as substrate; for effect on aromatase enzyme expression: 25 μM, absence or presence of insulin, vs control
Procedure: La Jolla, Calif.). […] Cambridge, Mass.) were added to 1 ml of cell lysate. […] The lysate was centrifuged at 6,000 rpm for 3 min and the supernatant was transferred into another micro-centrifuge tube. […] Metab. 92: 2232-2239, 2007, which is incorporated herein by reference. The mixture was incubated for 3-4 h at 4° C. After Protein A-agarose was added, the mixture was incubated again overnight at 4° C. The immunoprecipitate complexes were collected by centrifugation and washed. The samples were then resuspended in 2× Laemmli buffer (BioRad, Hercules, Calif.) supplemented with 1 mM DTT (Cleland's reagent, 1, 4-dithiothreitol, threo-1, 4-dimercapto-2, 3-butanediol, Roche Inc, Indianapolis, Ind.). […] The bands were detected by chemiluminescence (Pierce, Rockford, Ill.). For the analysis of the expression of aromatase, NIH Scion Imaging program was used to evaluate integrated band intensity.

[5] = target: T1, aromatase enzyme (Homo sapiens, UniProt P11511); test: 125I-androstenedione binding to immunoprecipitated aromatase enzyme; conditions: for inhibition at 25 µM: 1 μM androstenedione, vs control
T1 construct: The aromatase enzyme was immunoprecipitated as described above; endogenous in cells; host or cells: primary granulosa cells (human), lysate immunoprecipitated with anti-human aromatase antibody and Protein A-agarose
T1 sequence (P11511 1-503): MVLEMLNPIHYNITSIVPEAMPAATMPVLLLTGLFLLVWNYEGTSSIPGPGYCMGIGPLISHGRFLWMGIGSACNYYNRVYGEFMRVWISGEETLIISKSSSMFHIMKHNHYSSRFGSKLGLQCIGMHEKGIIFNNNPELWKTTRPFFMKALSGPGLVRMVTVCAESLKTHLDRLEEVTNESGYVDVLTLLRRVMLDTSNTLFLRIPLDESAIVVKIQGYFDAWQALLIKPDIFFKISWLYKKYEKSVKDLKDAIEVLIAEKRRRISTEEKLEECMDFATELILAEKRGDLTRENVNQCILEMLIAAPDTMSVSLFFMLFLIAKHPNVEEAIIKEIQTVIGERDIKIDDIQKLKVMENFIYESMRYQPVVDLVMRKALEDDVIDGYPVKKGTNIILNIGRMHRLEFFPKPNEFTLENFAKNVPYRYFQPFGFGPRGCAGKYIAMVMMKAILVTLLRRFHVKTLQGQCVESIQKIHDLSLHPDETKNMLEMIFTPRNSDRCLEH
Procedure: (§2) Rabbit polyclonal anti-human aromatase antibodies (1.4 μg) (Abcam, Inc. Cambridge, Mass.) were added to 1 ml of cell lysate. The lysate buffer contained 20 mM Tris-HCl (pH 7.4), 150 mM NaCl, 1 mM CaCl2, 1 mM MgCl2, 1 mM Na orthovanadate, 1% NP40, 1 mM AEBSF (4-2-aminoethyl-benzenesulfonyfluoride, hydrochloride), 0.8 μM aprotinin, 50 μM bestain, 15 μM E-64, 20 μM leupeptin, 10 μM pepstatin A, 1 mM phenylmethylsulfonyl fluoride and 10 μg/ml trypsin inhibitor. The lysate was centrifuged at 6,000 rpm for 3 min and the supernatant was transferred into another micro-centrifuge tube. […] Metab. 92: 2232-2239, 2007, which is incorporated herein by reference. The mixture was incubated for 3-4 h at 4° C. After Protein A-agarose was added, the mixture was incubated again overnight at 4° C. The immunoprecipitate complexes were collected by centrifugation and washed. The samples were then resuspended in 2× Laemmli buffer (BioRad, Hercules, Calif.) supplemented with 1 mM DTT (Cleland's reagent, 1, 4-dithiothreitol, threo-1, 4-dimercapto-2, 3-butanediol, Roche Inc, Indianapolis, Ind.). […] The bands were detected by chemiluminescence (Pierce, Rockford, Ill.). For the analysis of the expression of aromatase, NIH Scion Imaging program was used to evaluate integrated band intensity.
(§3) The aromatase enzyme was immunoprecipitated as described above. Purified aromatase bound to Protein A-agarose was added to 250 μl of solution containing the final concentration of 1 μM testosterone (2 μCi of [125I]/m1 testosterone with the specific radioactivity of 857 μCi/nmol) or androstenedione (3.5 μCi of [125I]/ml androstenedione with the specific radioactivity of 430 μCi/nmol), with insulin (0, 10, 10^2, 10^3 ng/ml) and with or without 25 μM rosiglitazone or pioglitazone. The mixture was incubated at room temperature for 30 min and then centrifuged at 6000 rpm for 3 min. The pellets were washed two times with 400 μl Dulbecco's phosphate saline. The bound testosterone or androstenedione, expressed as % of total testosterone or androstenedione, was measured in Wizard gamma counter.

[6] = target: T1, aromatase enzyme; test: 125I-testosterone binding to immunoprecipitated aromatase enzyme; conditions: for inhibition at 25 µM: 1 μM testosterone, vs control
Procedure: as §2, §3

[7] = in the presence of aromatase inhibitor I
[8] = 25 μM TZD, presence of insulin, absence of aromatase inhibitor I, vs control without TZD
[9] = 25 μM, absence or presence of insulin, vs control
[10] = insulin, absence of aromatase inhibitor I, vs baseline

Q: With “4-(imidazolylmethyl)-1-nitro-9H-9-xanthenone [aromatase inhibitor I]” as the compound, how does the “inhibition of estrone production” value ([1]; aromatase inhibitor 100 to 200 nM) read?
A: 55%

Q: What about the “inhibition of estradiol production” value [2, 7] of the same compound?
A: 72%

Q: What about the “insulin-induced stimulation of estradiol production” value [2, 7] of the same compound?
A: completely abolished

Q: For CCc1ccc(CCOc2ccc(CC3SC(=O)NC3=O)cc2)nc1 (centres unmarked) [pioglitazone], which “inhibition of estrone production” value [1, 8] is on record?
A: 22%

Q: What about the “inhibition of estradiol production” value [2, 8] of the same compound?
A: 34%

Q: And the “reduction of the inhibitory effect on insulin-induced estradiol production” value [2]?
A: 62%

Q: What about the “effect on aromatase mRNA” value [3, 9] of the same compound?
A: no significant effect

Q: And the “effect on aromatase enzyme expression” value [4]?
A: no significant effect

Q: What about the inhibition at 25 µM [5] of the same compound?
A: 20%

Q: And the inhibition at 25 µM [6]?
A: 32%

Q: How did the “inhibition of estrone production” value [1, 8] turn out when CN(CCOc1ccc(CC2SC(=O)NC2=O)cc1)c1ccccn1 (centres unmarked) [rosiglitazone] was run?
A: 22%

Q: What about the “inhibition of estradiol production” value [2, 8] of the same compound?
A: 34%

Q: And the “reduction of the inhibitory effect on insulin-induced estradiol production” value [2]?
A: 62%

Q: And the “effect on aromatase mRNA” value [3, 9]?
A: no significant effect

Q: And the “effect on aromatase enzyme expression” value [4]?
A: no significant effect

Q: And the inhibition at 25 µM [5]?
A: 20%

Q: And the inhibition at 25 µM [6]?
A: 38%

Q: With “insulin: insulin added to granulosa cell culture (0-10^4 ng/ml)” as the compound, how does the “stimulation of estrone production” value [1, 10] read?
A: 114%

Q: And the “stimulation of estradiol production” value [2, 10]?
A: 124%

Q: And the “effect on aromatase mRNA” value ([3]; insulin alone)?
A: no effect

Q: And the “effect on aromatase enzyme (protein) expression” value ([4]; insulin alone)?
A: did not affect

Q: What about the “effect on the binding of androstenedione to aromatase” value ([5]; insulin alone) of the same compound?
A: no effect

Q: And the “effect on the binding of testosterone to aromatase” value ([6]; insulin alone)?
A: no effect
